We go through five substances from patent EP1859811B1, “Use of conjugates of amatoxins or phallotoxins with macromolecules for tumor and inflammation therapy” (Faulstich, Heinz, Dr., priority 2006, dated 2007).

One experiment relates to Jurkat. Nature of the experiment: inhibition of proliferation by [3H]thymidine incorporation, Jurkat. Format: cell-based. The settings on record: Jurkat cells (CD3); Fig.3. How it is done: Monoclonal antibodies were conjugated with ß-amanitin-N-hydoxysuccinimide ester by incubating the antibody in PBS (2mg/mL) with 10-30 equivalents of the activated ß-amanitin derivative at 4°C under gentle shaking. After reaction for 16h the protein derivative was separated from unreacted amanitin by gelfiltration chromatography on Sephadex G25 using PBS as solvent. The combined protein fractions were concentrated to a protein concentration of ca 2 mg/mL and a toxin concentration of ca. 5 x 10^-5M. The ratio toxin : mAB was in the range of 5-15 : 1.
Three different cell lines, MCF-7, Jurkat, and Raji, exposing the specific receptors EpCAM, CD3, and CD71, respectively, were tested for the inhibition of proliferation by such ß-amanitin-monoclonal antibody conjugates, as followed by [^3H]thymidine incorporation. […] In all cases was amanitin conjugated to a specific antibody distinctly more toxic to the corresponding cell line than free amanitin, or amanitin conjugated to unspecific antibodies.
(Incorporation of labelled thymidine or its analogues reports DNA synthesis.)

In another experiment the test system is Jurkat cells. Nature of the experiment: apoptosis in cultures of Jurkat cells incubated with toxin. The format is cell-based. The settings on record: own unpublished results. The source says:
Amatoxins (α-amanitin, β-amanitin, amanin) are cyclic peptides composed of 8 amino acids. They can be isolated from Amanita phalloides mushrooms or prepared from the building blocks by synthesis. Amatoxins inhibit specifically the DNA-dependent RNA polymerase II of mammalian cells, and by this transcription and protein biosynthesis of the cells affected. Inhibition of transcription in a cell causes stop of growth and proliferation. Though not covalently bound, the complex between amanitin and RNA-polymerase II is very tight (KD = 3nM). Dissociation of amanitin from the enzyme is a very slow process what makes recovery of an affected cell unlikely.
Phallotoxins (phalloidin, phallacidin, aminophalloidin) are cyclic peptides composed of 7 aminoacids. They bind specifically to the cytoskeletal protein actin in its polymeric form (microfilaments). By this, they prevent depolymerization of the microfilaments and disturb the proper function of the actin cytoskeleton. The actin cytoskeleton is a dense meshwork of microfilaments undergoing, under the control of actin-associated proteins, rapid cycles of assembly and disassembly essential for dynamic processes such as cell division and migration. Likewise, invasion by metastatic cells is thought to be dependent on actin. […]

Experiment [1] deals with DNA-dependent RNA polymerase II of mammalian cells (Homo sapiens, UniProt P24928+P30876). The note with it: complex between amanitin and RNA-polymerase II; cited from earlier work.
The test system of another experiment is actin. Nature of the experiment: binding to actin.

OKT3: in the experiment on Jurkat, the “times more inhibitory for the proliferation than the amanitin conjugate of an unspecific monoclonal antibody (ALH-419)” value was 330 times. Take phalloidin oleate: in the experiment with Jurkat cells, the “programmed cell death (apoptosis)” value is “caused apoptosis”. Still for that read-out and setting: the entry for α-amanitin is “undergoes programmed cell death (apoptosis)”. One may read the Kd as the free concentration of one partner at which half of the binding sites on the other are occupied at equilibrium, for simple one-to-one binding. In the case of amanitin, in experiment [1], the Kd was 3 nM. For the substance thiopropionyl-aminophalloidin, in the experiment with actin, the “actin binding compared with phalloidin” value was “binds actin as tightly as phalloidin itself”.
